Test results as given in patent US9603829B2, “HSP90 inhibitors with modified toxicity” (THE REGENTS OF THE UNIVERSITY OF COLORADO, a body corporate, priority 2011, dated 2017).

How the values were obtained:
[1] = biological target: yeast Hsp90 ATPase (Saccharomyces cerevisiae, UniProt P02829); test: Purified recombinant yeast Hsp90 ATPase activity; assay type: biochemical; conditions: in the absence and presence of NQO1
Experimental: In vitro testing was performed to verify that 19-substitutions prevent GSH conjugation of benzoquinone ansamycins (BQAs). Referring to FIG. 6, reactions were performed in 50 mM potassium phosphate buffer, pH 7.4 containing 50 μM benzoquinone ansamycin in the absence (solid bars) and presence (hatched bars) of 5 mM GSH. At the indicated times (GM series, 15 min; DMAG series, 3 hr; AAG series, 16 hr) the reactions were stopped and BQA concentrations were determined by HPLC. […] The 19-substituted benzoquinone ansamycins were also tested in vitro for inhibition of Hsp90. Referring to FIG. 7, purified recombinant yeast Hsp90 ATPase activity was measured in reactions with 19-substituted BQAs in the absence and presence of NADPH quinone oxidoreductase 1 (NQO1). Results are expressed as percent of DMSO control (mean±SD n=3).
The parent BQA's inhibited purified Hsp90 much more readily in the presence of NQO1 to generate the hydroquinone and this could be blocked by the inhibitor ES936. […] This could be blocked by the NQO1 inhibitor ES936.

[2] = system: human pancreatic cancer cell lines (Panc-1, Panc-1/C5); test: MTT growth inhibition in human pancreatic cancer cell lines; assay type: cell-based
Experimental: (§1) The inventors also examined the ability of 19 BQAs to inhibit the growth of human pancreatic cancer cell lines (FIG. 16). For growth inhibition studies (MTT) cells were treated with drugs for 4 hr and then allowed to grow for 72 h. For biomarker studies MiaPaCa2 cells were treated with DMAG analogs (5 μM) for 24 hr. 19 BQAs inhibit the growth of human pancreatic cancer cell lines (FIG. 16A, 16B) and induce biomarkers of Hsp90 inhibition (FIG. 16C) using isogenic Panc-1 (NQO1 null) and Panc-1/C5 (NQO1 expressing) cell lines.

[3] = system: p23/Hsp90 interaction; test: Immunoprecipitation of p23 and Hsp90 in BT474 cells; assay type: cell-based, human; conditions: 5 μM, 24 hr
Experimental: Forward and reverse immunoprecipitation studies were performed in BT474 cells treated with DMAG analogs (5 μM) for 24 hr.

[4] = system: BT474 human breast cancer cells; test: MTT growth inhibition in BT474 cells; assay type: cell-based; conditions: BT474, 4 hr treatment, MTT 72 h later
Experimental: (§2) The inventors extended the studies with 19-substituted DMAG analogs to include the Her2^+ human breast cancer cell line BT474 (FIG. 15). Growth inhibition (FIG. 15, left panel) was measured in BT474 cells following treatment with analogs for 4 hr. Growth inhibition (MTT) was performed 72 h following drug treatments. Biomarkers of Hsp90 inhibition, Raf-1, AKT, CDK4 and Her2 degradation as well as Hsp70 induction were measured by immunoblot analysis in human BT474 breast cancer cells following treatment with 19-substituted DMAG analogs (5 μM) for 24 hr ([…], left panel).

[5] = system: cdc37/Hsp90 interaction; test: Immunoprecipitation of cdc37 with Hsp90 in BT474 and MDA468/NQ16 cells; assay type: cell-based, human; conditions: 5 μM, 24 hr
Experimental: Similarly, the association of cdc37 with hsp90 was examined in BT474 cells and MDA468/NQ16 cells by immunoprecipitation following treated with analogs (5 μM) for 24 hr. […] This finding is consistent with X ray data using purified Hsp90 showing that the larger 19-phenyl substituent causes greater conformational change in the Hsp90 structure than smaller 19-substituents (not shown). This also correlates with the differential effect of 19-phenyl and 19-methyl DMAG on clients chaperoned by cdc37 to Hsp90 which include Raf1, Akt, cdc2 and cdk4 (FIGS. 8,9,10).

[6] = system: primary mouse hepatocytes; test: Hepatotoxicity in primary mouse hepatocytes (MTT); assay type: cell-based; conditions: 4 hr, confirmed by Trypan Blue and AST leakage
Experimental: The inventors next tested the effect of 19-substitution of BQAs on hepatotoxicity in isolated hepatocyte systems. Isolated primary mouse hepatocytes were grown on coated 96-well plates and exposed to BQAs for 4 h after which their survival was determined using the MTT assay.
As described above, a major obstacle in the development of BQA as drugs has been their ability to induce hepatotoxicity in preclinical studies. […] Toxicity was measured using MTT assay and confirmed using Trypan Blue and AST leakage. The data shown in FIG. 19 were generated using MTT analysis but similar readouts were obtained using either trypan blue exclusion or leakage of AST from hepatocytes.

[7] = system: MiaPaCa2 human pancreatic cancer cells; test: MTT growth inhibition in MiaPaCa2 cells; assay type: cell-based
Experimental: as §1

[8] = system: Hsp90 (Raf-1, AKT, CDK4, Her2 degradation, Hsp70 induction); test: Immunoblot biomarkers of Hsp90 inhibition in BT474 cells; assay type: cell-based, human; conditions: cell line not given
Experimental: as §2

[9] = system: Hsp90 (Raf-1, AKT degradation and Hsp70 induction); test: Biomarkers of Hsp90 inhibition in MDA468/NQ16 cells; assay type: cell-based, human; conditions: MDA468/NQ16 (high NQO1) cells
Experimental: (§3) The ability of 19-substituted BQAs to induce growth inhibition was measured by MTT in isogenic MDA468 (null NQO1) and MDA468/NQ16 (high NQO1) cells. […] Biomarkers of Hsp90 inhibition (Raf-1, AKT degradation and Hsp70 induction) were more pronounced in MDA468/NQ16 cells compared to MDA468 cells following treatment with 19-substituted DMAG analogs.

[10] = system: SHSY-5Y cells; test: MTT growth inhibition assay in SHSY-5Y dopaminergic cells; assay type: cell-based, human; conditions: Homo sapiens, SH-SY5Y, read-out: SHSY-5Y IC50
Experimental: The 19-substituted benzoquinone ansamycins were also tested in vitro for their ability to reduce the toxicity of BQAs to SH-SY5Y cells a dopaminergic model system of relevance to neurodegenerative disease. Referring to FIG. 9, toxicity of BQAs in SH-SY-5Y cells was measured using trypan blue exclusion (panel A), MTT growth inhibition assay (panel B) and annexin V/PI staining for apoptosis (panel C). Cells in A and C were treated with BQAs (5 μM) for 16 h; cells in B were treated with BQAs for 4 h then allowed to grow in drug-free medium for 72 h. […] The combination of these two properties are likely to be important to the neuroprotective properties of the 19-substituted BQAs.
Growth inhibition assays (MTT) were conducted in human SHSY-5Y cells following a 4 hr treatment with GA or 19Me-GA. Cell were allowed to grow for 72 hrs following drug treatment. The 19-methyl substituted compounds in all series were minimally toxic (see FIG. 12 for data with geldanamycin, MTT assay, results are expressed as the mean±SD, n=3).

[11] = system: Hsp90; test: Biomarkers of Hsp90 inhibition in MiaPaCa2 cells; assay type: cell-based, human; conditions: 5 μM, 24 hr (FIG. 16C)
Experimental: as §1

[12] = system: MDA468/NQ16 breast cancer cells; test: MTT growth inhibition in isogenic MDA468/NQ16 and MDA468 cells; assay type: cell-based, human; conditions: MDA468/NQ16, 4 hours treatment, 72 h growth, MTT
Experimental: The 19-substituted benzoquinone ansamycins were also tested in vitro for their ability to inhibit growth similar to DMAG in human breast cancer cells (FIG. 10). MDA468/NQ16 breast cancer cells were treated with 19-substituted DMAG analogs for 4 hours, after which drug-containing media was removed and cells were allowed to grow for an additional 72 h. Cell viability was determined using the MTT assay.
as §3

[13] = biological target: purified human NQO1 (Homo sapiens, UniProt P15559); test: Reduction by purified recombinant human NQO1 (HPLC); assay type: biochemical; conditions: 50 μM, NADH 200 μM, rhNQO1 5 μg, 15 min; blocked by ES936
Experimental: To confirm bioreduction by NQO1 19Ph-GA was incubated with purified human NQO1 and analyzed by HPLC. […] Reactions with purified rhNQO1 (FIG. 14, panels A and B): 19Ph-GA (50 μM) was incubated with NADH (200 μM) in the absence and presence of purified rhNQO1 (5 μg). After 15 min reactions were stopped and analyzed by HPLC. Panel A; chromatograph overlays of 19Ph-GA, NADH (black) and 19Ph-GA, NADH and NQO1 (red). […] Panel B; chromatograph of 19Ph-GA, NADH, NQO1 and ES936. No 19Ph-GA hydroquinone formation is observed in the presence of the NQO1 inhibitor ES936.

purified human NQO1, sequence (P15559 whole entry): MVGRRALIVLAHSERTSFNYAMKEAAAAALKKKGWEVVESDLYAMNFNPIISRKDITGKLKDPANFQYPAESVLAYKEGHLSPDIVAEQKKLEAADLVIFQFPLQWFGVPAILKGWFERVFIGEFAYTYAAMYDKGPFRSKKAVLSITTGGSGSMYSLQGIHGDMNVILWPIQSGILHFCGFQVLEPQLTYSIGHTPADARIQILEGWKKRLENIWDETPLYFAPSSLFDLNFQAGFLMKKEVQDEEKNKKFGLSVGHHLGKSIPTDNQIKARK
yeast Hsp90 ATPase, sequence (P02829 whole entry): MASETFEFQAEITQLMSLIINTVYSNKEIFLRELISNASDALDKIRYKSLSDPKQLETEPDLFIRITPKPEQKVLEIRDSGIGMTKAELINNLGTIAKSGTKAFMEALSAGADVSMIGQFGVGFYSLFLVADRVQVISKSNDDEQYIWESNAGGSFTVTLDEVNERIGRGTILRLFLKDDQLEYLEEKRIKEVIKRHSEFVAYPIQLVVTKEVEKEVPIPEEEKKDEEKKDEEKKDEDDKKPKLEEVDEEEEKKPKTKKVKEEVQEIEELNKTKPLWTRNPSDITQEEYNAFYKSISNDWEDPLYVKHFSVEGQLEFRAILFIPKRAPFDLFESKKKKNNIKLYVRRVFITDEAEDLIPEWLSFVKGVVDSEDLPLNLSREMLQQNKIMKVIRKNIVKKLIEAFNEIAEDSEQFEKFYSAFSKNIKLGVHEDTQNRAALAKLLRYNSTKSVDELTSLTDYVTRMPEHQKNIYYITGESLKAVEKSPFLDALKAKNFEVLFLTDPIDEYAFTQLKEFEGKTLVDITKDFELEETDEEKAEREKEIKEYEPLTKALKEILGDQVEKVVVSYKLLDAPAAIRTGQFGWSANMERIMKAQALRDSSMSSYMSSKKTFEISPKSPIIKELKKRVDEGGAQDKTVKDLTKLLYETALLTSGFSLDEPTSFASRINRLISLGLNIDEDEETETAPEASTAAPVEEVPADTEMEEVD

| SMILES | inhibition of Hsp90 ATPase activity [1] | sensitivity of Panc-1/C5 (high NQO1) relative to NQO1-null Panc-1 cells ([2]; FIG. 16B) | growth inhibitory activity ([2]; human pancreatic cancer cell lines, 4 hr treatment, 72 h growth, MTT (FIG. 16A)) | interaction of p23 and Hsp90 [3] | growth inhibition [4] | interaction of cdc37 with Hsp90 [5] | hepatotoxicity [6] | IC50 ([7]; Homo sapiens, MIA PaCa-2, read-out: IC50 MiaPaCa2) | potency relative to 19Me-DMAG, growth inhibition ([7]; MiaPaCa2 cells) | effects on clients chaperoned by cdc37 to Hsp90 (Raf1, Akt, cdc2, cdk4) [8] | Hsp70 induction [9] | Raf-1 and AKT degradation [9] | IC50 [10] | induction of biomarkers of Hsp90 inhibition [11] | potency at killing breast cancer cells relative to DMAG [12] | reduction to hydroquinone by NQO1 [13] |
| --- | --- | --- | --- | --- | --- | --- | --- | --- | --- | --- | --- | --- | --- | --- | --- | --- |
| C=CCNc1c(O)cc2c(O)c1C[C@@H](C)C[C@H](OC)[C@H](O)[C@@H](C)/C=C(\C)[C@H](OC(N)=O)[C@@H](OC)/C=C\C=C(/C)C(=O)N2 [17AAG hydroquinone] | inhibition of yeast Hsp90 ATPase activity | – | – | – | – | – | – | – | – | – | – | – | – | – | – | – |
| CO[C@H]1/C=C\C=C(/C)C(=O)NC2=C(c3ccccc3)C(=O)C(NCCN(C)C)=C(C[C@@H](C)C[C@H](OC)[C@H](O)[C@@H](C)/C=C(\C)[C@@H]1OC(N)=O)C2=O [19Ph-DMAG, (4E,6Z,8S,9S,10E,12S,13R,14S,16R)-19-(2-(Dimethylamino)ethylamino)-13-hydroxy-8,14-dimethoxy-4,10,12,16-tetramethyl-3,20,22-trioxo-21-phenyl-2-azabicyclo[16.3.1]docosa-1 (21),4,6,10,18-pentaen-9-yl carbamate] | – | more sensitive | marked growth inhibitory activity | disrupted the interaction of p23 and Hsp90 | induced growth inhibition | disrupted the interaction of cdc37 with Hsp90 | no toxicity was observed | 3 ± 0.6 µM | greater than 10 fold | marked | equal Hsp70 induction compared to DMAG | more pronounced Raf-1 and AKT degradation | > 20 µM | pronounced induction of biomarkers of Hsp90 inhibition | greater potency at killing breast cancer cells than DMAG | – |
| COC1=C2C[C@@H](C)C[C@H](OC)[C@H](O)[C@@H](C)/C=C(\C)[C@H](OC(N)=O)[C@@H](OC)/C=C\C=C(/C)C(=O)NC(=C(c3ccccc3)C1=O)C2=O [19Ph-GA, 19-phenylgeldanamycin] | – | – | – | – | – | – | – | – | – | – | – | – | > 10 µM | – | – | reduced to the more polar 19Ph-GA hydroquinone |
